Test results published in patent US20060111287A1, “Acetylated protein” (priority 2002, published 2006).
“Also recorded” adds a separate entry of the source. Like-named read-outs stand apart in the source and are kept apart here.

Legend:
[1] = tested on: U937.12 cells; assay: HMGB1 relocation from nucleus to vesicles in LPS-challenged U937.12 cells (immunofluorescence); type: cell-based
Description: (§1) Fibroblasts and HeLa cells were cultured in Dulbecco's modified Eagle's medium (DMEM) supplemented with 10% fetal bovine serum (FBS, from Gibco), 100 IU/ml of penicillin and 100 μg/ml streptomycin, in 5% CO2 humidified atmosphere. HeLa cells and 3134 mouse fibroblasts were transfected by calcium phosphate co-precipitation. To express fluorescent proteins, 3×10^5 cells were plated in 6 cm dishes and were transiently transfected with 8 μg of the appropriate plasmid. Cells were observed 36 hours after transfection. […] About 24 hours after transfection, 3134 fibroblasts were treated for 3 hours with 10 ng/ml trichostatin A (TSA, Sigma) before fixing and imaging. Subclone 12[−] of U937 promoyelocitic cells, kindly provided by M. Alfano and G. Poli (HSR, Milano), was grown in RPMI medium (Gibco) supplemented with 10% FCS, L-glutamine, 100 U/ml penicillin 100 μg/ml streptomycin, exposed for 3 days to 0.1 μM vitamin D3 (Roche) to promote CD14 expression, and stimulated with 100 ng/ml LPS (Sigma catalogue #L4391) or with 10 ng/ml TSA for 3 hours. For the experiments with kinase inhibitors, cells were exposed to 1 μM U0126, 10 μM SB203580 or 30 μM SP600125 (all from Calbiochem) at the same time as LPS, and lasting for 3 hours. Primary human monocytes, purified from peripheral blood (a kind gift from M. Iannacone, HSR), were maintained in RPMI medium supplemented as described above, and were activated with 100 ng/ml LPS.
Cell cultured in LabTek II chambers (Nalgene) were directly fixed in 3.7% paraformaldehyde (PFA) in PHEM buffer (36.8 g/l PIPES, 13 g/l HEPES, 7.6 g/l EGTA, 1.99 g/l MgSO4, buffered to pH 7.0 with KOH) for 10 minutes at room temperature. After fixation, cells were washed with PBS and incubated for 3 minutes at 4° C. with HEPES-based permeabilization buffer containing 300 mM sucrose and 0.2% Triton X-100. Fifteen minutes of incubation in blocking solution (BlS, 0.2% BSA in PBS) followed. Primary antibodies were then diluted in BIS to the suitable final concentration and incubation was prolonged for 1 hour at room temperature. After 3 rinses with BlS, cells were incubated with secondary antibodies in BIS for one hour, washed three times with BlS, and then incubated with PBS containing 0.5 μg/ml Hoechst 33342. The polyclonal rabbit anti-HMGB1 was purchased from BD PharMingen (Torrey Pines, Calif.), and used at 1:1600 dilution. Goat polyclonal antibodies against rabbit IgG (H+L) conjugated to Alexa Fluor 594 (working dilution 1:1000) were purchased from Molecular Probes (Eugene, Oreg., USA).
The secretion of TNF-α, IL-1, IL-8, and PGE2 by LPS-stimulated monocytes can be blocked by inhibiting ERK phosphorylation (Scherle et al., 1998). […] U937.12 cells were exposed to 200 ng/ml LPS in the presence of 1 μM U0126 (a specific inhibitor of ERK phosphorylation), 30 μM SP600125 (a specific inhibitor of Jnk kinases) or 10 μM SB203580 (a specific inhibitor of the p38 kinases). Control cultures were not exposed to LPS, or exposed to LPS but no inhibitors.

[2] = tested on: human monocytes; assay: HMGB1 translocation to cytoplasmic vesicles in LPS-activated primary monocytes; type: cell-based; settings: cycloheximide; time scale about 16-20 hours
Description: as §1, with “Primary human monocytes, purified from peripheral blood (a kind gift from M. Iannacone, HSR), were maintained in RPMI medium supplemented as described above, and were activated with 100 ng/ml LPS.” left out

[3] = tested on: 3T3 cells; assay: HMGB1 acetylation pattern by 2D gel electrophoresis and anti-HMGB1 blot after deacetylase inhibitors; type: cell-based, mouse; settings: for hyperacetylation of HMGB1: cell lines with low complexity of HMGB1 acetylation (3T3 mouse fibroblasts, HeLa cells, HEK cells)
Description: (C) Most cell lines contain 2 isoforms of HMGB1, and the protein can be hyperacetylated with TSA treatment. 3T3 cells were incubated for 6 hours in DMEM, or DMEM supplemented with 10 ng/ml TSA, then collected and lysed.
About 50 μg of purified HMGB1 or about 250 μg of total cellular protein were added to 350 μl of rehydration buffer (RB), containing 8 M urea, 2% CHAPS, 20 mM dithioerythritol (DTE), 0.8% IPG buffer (carrier ampholytes, pH 3-10 non-linear or pH 4-7 linear). Samples were applied on 18 cm polyacrylamide gel strips (pH range: 3-10 NL, or pH 4-7 L). Isoelectrophocusing (IEF) was performed in IPGphor (Pharmacia Biotech). IEF was stopped at 75000-90000 VoltHours. Second dimension runs were performed using a Protean II apparatus (Bio-Rad). After IEF, strips were soaked first in equilibration buffer (EB: 6 M urea, 3% SDS, 375 mM Tris pH 8.6, 30% glycerol, 2% DTE), then in EB containing 3% iodoacetamide (LAA) and traces of bromophenol blue (BBP). Strips were then applied onto 10%-12% polyacrylamide gels. Gels were run at 90 V for about 16 hours, and were then either silver stained or transferred onto nitrocellulose membranes (ECL, Amersham) in 25 mM Tris pH 7.5, 0.192 M glycine, 20% methanol.

[4] = tested on: U937.12 cells; assay: HMGB1 relocation in U937.12 cells treated with TSA without LPS (immunofluorescence); type: cell-based; settings: 10 ng/ml TSA for 3 hours, no LPS
Description: (§2) Fibroblasts and HeLa cells were cultured in Dulbecco's modified Eagle's medium (DMEM) supplemented with 10% fetal bovine serum (FBS, from Gibco), 100 IU/ml of penicillin and 100 μg/ml streptomycin, in 5% CO2 humidified atmosphere. HeLa cells and 3134 mouse fibroblasts were transfected by calcium phosphate co-precipitation. To express fluorescent proteins, 3×10^5 cells were plated in 6 cm dishes and were transiently transfected with 8 μg of the appropriate plasmid. Cells were observed 36 hours after transfection. The average amount of HMGB1-GFP in the cell population was between 1 and 3% of HMGB1 (as measured by immunoblotting with anti-HMGB1 antibodies). About 24 hours after transfection, 3134 fibroblasts were treated for 3 hours with 10 ng/ml trichostatin A (TSA, Sigma) before fixing and imaging. Subclone 12[−] of U937 promoyelocitic cells, kindly provided by M. Alfano and G. Poli (HSR, Milano), was grown in RPMI medium (Gibco) supplemented with 10% FCS, L-glutamine, 100 U/ml penicillin 100 μg/ml streptomycin, exposed for 3 days to 0.1 μM vitamin D3 (Roche) to promote CD14 expression, and stimulated with 100 ng/ml LPS (Sigma catalogue #L4391) or with 10 ng/ml TSA for 3 hours. For the experiments with kinase inhibitors, cells were exposed to 1 μM U0126, 10 μM SB203580 or 30 μM SP600125 (all from Calbiochem) at the same time as LPS, and lasting for 3 hours. […]

[5] = tested on: 3134 mouse fibroblasts; assay: HMGB1-GFP relocation to the cytoplasm in fibroblasts after TSA; type: cell-based; settings: 10 ng/ml TSA for 3 hours
Description: as §2

[6] = tested on: HMGB1 transfer between human and mouse nuclei; assay: Heterokaryon assay: HMGB1 transfer from human to mouse nuclei; type: cell-based; settings: for HMGB1 transfer between human and mouse nuclei in heterokaryons: 150 nM leptomycin B, 4 hours at 37° C. with cycloheximide
Text: (A) Heterokaryons were formed by fusing HMGB1-expressing HeLa cells (human) and Hmgb1−/− mouse embryonic fibroblasts. Human cytokeratin and HMGB1 were stained red and green, respectively, with specific antibodies; nuclei were stained blue with DAPI (or Hoechst). Cells with human cytokeratin staining and two nuclei, one of which with bright DAPI-positive heterochromatic spots characteristic of mouse cells, were considered heterokaryons.
Heterokaryons were produced and scored as in panel A; 150 heterokaryons were evaluated for HMGB1 transfer into recipient mouse nuclei for each of the 2 classes (leptomycin and control). The 50% level is equivalent to complete equilibration.
HeLa cells were plated on glass coverslips in a 6-well dish (100 000 cells/dish). After 16 hours, 200 000 Hmgb1−/− mouse fibroblasts were plated on the same coverslips. Following a 3-hour incubation in the presence of 100 μg/ml cycloheximide, the cells were washed with PBS and treated with 100 μl of prewarmed 50% PEG-6000 in PBS for 1 min. After 3 washes with PBS, the cells were incubated with DMEM containing 100 μg/ml cycloheximide for 4 hours, and then fixed with 4% paraformaldehyde. Immunofluorescence was performed using anti-human cytokeratin (Santa Cruz) and anti-HMGB1 antibodies, and chromatin was visualized by DAPI staining. When indicated, 150 nM leptomycin B (a kind gift of Barbara Wolff, Novartis, Vienna) was added to the medium together with cycloheximide.

[7] = target: CRM1 exportin (Homo sapiens, UniProt O14980); assay: Pull down assay with labeled CRM1; settings: 0.4 μM (400 nM) leptomycin B in the binding buffer
CRM1 exportin, sequence (O14980 whole entry): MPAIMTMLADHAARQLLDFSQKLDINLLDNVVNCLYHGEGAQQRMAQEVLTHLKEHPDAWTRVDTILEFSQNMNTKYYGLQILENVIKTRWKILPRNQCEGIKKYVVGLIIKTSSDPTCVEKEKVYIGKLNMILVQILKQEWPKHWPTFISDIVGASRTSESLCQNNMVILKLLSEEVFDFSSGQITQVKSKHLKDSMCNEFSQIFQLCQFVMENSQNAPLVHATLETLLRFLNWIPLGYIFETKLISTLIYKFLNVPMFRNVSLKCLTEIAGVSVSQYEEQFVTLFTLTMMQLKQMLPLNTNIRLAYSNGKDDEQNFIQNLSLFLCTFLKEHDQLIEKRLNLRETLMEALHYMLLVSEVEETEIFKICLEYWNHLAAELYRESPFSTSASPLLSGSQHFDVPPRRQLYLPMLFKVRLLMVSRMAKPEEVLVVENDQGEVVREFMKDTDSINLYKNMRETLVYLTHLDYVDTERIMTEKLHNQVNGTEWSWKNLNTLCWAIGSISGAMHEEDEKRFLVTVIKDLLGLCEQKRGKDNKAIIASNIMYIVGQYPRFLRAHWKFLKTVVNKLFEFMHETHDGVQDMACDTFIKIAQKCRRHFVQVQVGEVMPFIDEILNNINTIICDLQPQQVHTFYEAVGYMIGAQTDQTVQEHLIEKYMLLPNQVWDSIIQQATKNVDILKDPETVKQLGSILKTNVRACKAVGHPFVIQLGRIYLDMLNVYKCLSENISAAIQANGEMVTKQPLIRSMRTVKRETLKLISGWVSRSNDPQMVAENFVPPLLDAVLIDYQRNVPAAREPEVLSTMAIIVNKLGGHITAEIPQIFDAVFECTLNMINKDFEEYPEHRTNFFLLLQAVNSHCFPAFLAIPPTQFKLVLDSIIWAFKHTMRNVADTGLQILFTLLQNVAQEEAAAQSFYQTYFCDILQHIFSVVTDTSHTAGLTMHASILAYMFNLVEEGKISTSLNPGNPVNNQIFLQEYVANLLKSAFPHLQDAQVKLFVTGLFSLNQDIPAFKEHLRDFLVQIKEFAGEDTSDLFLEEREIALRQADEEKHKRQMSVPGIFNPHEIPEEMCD
Description: Labeled CRM1 protein was mixed with beads bearing GST-NS2 immobilized onto Glutathione Sepharose or BSA, tailless HMGB1 (boxA+B) or individual boxes covalently linked to Sepharose. Aliquots representing the input material (In), the fourth wash (W4), the material remaining bound to beads after 5 washes (bound, B), and the unbound material (output, O) were electrophoresed and autoradiographed.
CRM1 protein was in vitro transcribed-translated with the TnT Coupled Reticulocyte Lysate System (Promega) following the manifacturer's protocol, using pSGCRM1 plasmid as template. Seven μl of freshly made [^35S]-Met labeled CRM1 were incubated in 15 μl RAN Buffer (50 mM Tris-HCl pH 7.5, 200 mM NaCl, 2 mM MgCl2, 10% glycerol), 5 μl of 6×CRM1 buffer (20 mM HEPES-KOH pH 7.5, 80 mM CH3COOK, 4 mM Mg (CH3COO)2, 250 mM sucrose, 2.5 mM DTT), 1 mg/ml BSA, 400 nM Leptomycin B where indicated, and approximately 10 μl of beads bearing immobilized GST-NS2, BSA, recombinant tailless HMGB1 (HMGB1ΔC, Muller et al., 2001b), boxA, or boxB. GST-NS2 was coupled to Gluthatione Sepharose (Amersham), the other proteins were covalently cross-linked to Activated Sepharose-CH (Amersham). The incubation was for one hour at 4° C. on a rotating wheel. The beads were pelleted by centrifugation, supernatants were dried in Savant. […]

N#CC(=C(/N)Sc1ccccc1N)/C(C#N)=C(\N)Sc1ccccc1N [U0126]
HMGB1 relocation to vesicles after LPS [1]: blocks it completely; also recorded: inhibition of HMGB1 translocation; also recorded: almost completely blocked
HMGB1 translocation after LPS stimulation after removal of the inhibitor [1]: restored

C[C@@H]1C[C@@H]([C@H](O)CC2CC(=O)NC(=O)C2)C(=O)[C@@H](C)C1 [cycloheximide]
HMGB1 translocation to cytoplasmic vesicles after LPS [2]: not inhibited
HMGB1 translocation after LPS ([1]; 10 μM cycloheximide starting 20 minutes prior to LPS addition): does not block HMGB1 translocation
HMGB1 translocation to vesicles when LPS is added ([1]; 10 μg/ml cycloheximide): still translocate HMGB1 to vesicles

CCCC(=O)[O-].[Na+] [sodium butyrate]
hyperacetylation of HMGB1 [3]: hyperacetylation could be obtained

CC(/C=C/C(=O)NO)=C\[C@@H](C)C(=O)c1ccc(N(C)C)cc1 [TSA, trichostatin A]
HMGB1 isoform spots on 2D gel (hyperacetylation) ([3]; 3T3 cells, 10 ng/ml TSA, 6 hours, control 2 spots): several HMGB1 spots appeared
hyperacetylation of HMGB1 [3]: hyperacetylation could be obtained
cytoplasmic expansion [4]: do not show cytoplasmic expansion
relocation of HMGB1 to cytoplasmic vesicles [4]: a fraction of HMGB1 is relocalized to cytoplasmic vesicles; also recorded: a fraction of HMGB1 started to shift to cytoplasmic vesicles
relocation of HMGB1-GFP to the cytoplasm [5]: causes a significant relocation of HMGB1-GFP to the cytoplasm; also recorded: sufficient to relocate a significant amount of HMGB1 to the cytoplasm

CCC(=C/[C@H](C)C/C=C/C(C)=C/[C@@H](C)C(=O)[C@@H](C)[C@H](O)[C@@H](C)C/C(C)=C/C(=O)O)/C=C/[C@@H]1OC(=O)C=C[C@@H]1C [leptomycin B]
HMGB1 relocation to vesicles after LPS ([1]; 150 nM leptomycin together with LPS, 3 hours): partially blocked
HMGB1 relocation to vesicles after LPS ([1]; 150 nM leptomycin together with LPS, 3 hours, listed as leptomycin): blocks HMGB1 relocation almost completely
HMGB1 transfer between human and mouse nuclei in heterokaryons ([6]; listed as Leptomycin B): substantially reduces, but does not abolish
HMGB1 transfer between human and mouse nuclei in heterokaryons ([6]; listed as leptomycin): strongly reduced
HMGB1 migrated to the mouse nucleus ([6]; vast majority of leptomycin-treated heterokaryons, after 4 hours, 50% level = complete equilibration): less than 5%
binding of labeled CRM1 to GST-NS2 and the HMG boxes (BoxA+B) [7]: did not bind
binding of labeled CRM1 to GST-NS2 and the HMG boxes (BoxA+B) ([7]; listed as leptomicin B): prevents binding of CRM1

C[C@@H]1NC(=O)[C@H]2CCCN2C(=O)[C@H](CCCCCC(=O)[C@@H]2CO2)NC(=O)[C@@H](C)NC1=O [HC-toxin]
hyperacetylation of HMGB1 [3]: hyperacetylation could be obtained

C[S+]([O-])c1ccc(-c2nc(-c3ccncc3)c(-c3ccc(F)cc3)[nH]2)cc1 (centres unmarked) [SB203580]
HMGB1 relocation to vesicles after LPS ([1]; 10 μM SB203580 together with LPS, 3 hours): has no effect; also recorded: substantial
